This note sets out measurements from patent US20100216827A1 (Metabolex, Inc., priority 2008, published 2010).

For the assay, the target named is T1, human GPR120 (Homo sapiens, UniProt Q5NUL3).
T1 construct: host or cells: HEK293 cells coexpressing Gqi5
T1 sequence (Q5NUL3 1-361): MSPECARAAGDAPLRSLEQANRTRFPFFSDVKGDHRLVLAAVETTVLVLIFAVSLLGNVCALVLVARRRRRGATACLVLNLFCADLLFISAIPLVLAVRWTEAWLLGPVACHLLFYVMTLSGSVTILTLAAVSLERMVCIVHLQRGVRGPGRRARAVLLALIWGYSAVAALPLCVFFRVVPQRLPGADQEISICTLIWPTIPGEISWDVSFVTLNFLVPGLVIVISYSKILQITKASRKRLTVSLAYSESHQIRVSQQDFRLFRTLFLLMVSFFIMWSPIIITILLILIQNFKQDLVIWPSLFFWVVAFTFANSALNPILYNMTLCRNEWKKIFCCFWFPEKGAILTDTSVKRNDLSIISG
Description: Intracellular Ca2+ (FLIPR Calcium 4, Flexstation) assay in human GPR120 stable HEK293 cell line coexpressing Gqi5. The class given is cell-based. Particulars: for % Activity at 5 μM: 5 μM compound compared to the maximal activity of GW9508 at 6.7 μM (100%); for EC50: human GPR120 stably expressing cells, 8 concentrations 0.00001 to 20 μM. The method, then:
Human GPR120 stable cell line was purchased from Multispan Inc (26219 Eden Landing Road, Hayward, Calif. 94545). This GPR120 cell line was generated in HEK293 cells coexpressing Gqi5. In this cell line, the Flag epitope tag (DYKDDDDK) was fused to the amino terminus of human GPR120 protein.
The concentration of intracellular Ca^2+ was measured as described below. Human GPR120 cells were plated in 96 well plates (Poly-D-Lysine coated black/clear Plate, Greiner Bio-One) at 70,000 cells per well and cultured overnight in conditions of 37° C. and 5% CO2. A Ca^2+ assay dye stock solution was prepared by adding 10 mL of assay buffer (HBSS/20 mM HEPES, pH 7.4) to FLIPR Calcium 4 Assay Bulk Kit (Molecular Devices). The 10 mL of Ca^2+ assay dye solution was prepared by further diluting 0.5 mL of Ca^2+ assay dye stock solution with 10 mL of assay buffer. The medium of the cells was removed and immediately 100 μl of the Ca^2+ assay dye solution was dispensed into each well followed by incubation at 37° C. and 5% CO2 for 50 minutes to incorporate the Ca^2+ dye into the cells. The cell plate was then placed in the Flexstation (Molecular Devices) for 20 minutes at 37° C. Compounds were dissolved in 100% DMSO and diluted to desired concentrations with assay buffer and placed in Flexstation simultaneously with the cell plate for 20 minute incubation at 37° C. prior to reading. Fluorescence intensity was measured immediately following compound addition (25 μl/well) on the Flexstation at an excitation wavelength of 485 nm and an emission wavelength of 525 with 515 nm auto cutoff. The resulting increase in fluorescence intensities corresponds to increases in intracellular Ca^2+ levels.
Compounds were dissolved in 100% DMSO to a concentration of 20 mM to provide stock solutions. To determine activity against human GPR120, compounds were added with human GPR120 stably expressing cells (described above), at 8 desired concentrations ranging from 0.00001 to 20 μM, in 96 well plates and fluorescence intensities were measured for 90 seconds with 2-second intervals. An EC50 value (concentration of the GPR120 agonist where 50% of the agonist's maximal activity is observed) was calculated using the changes (Max-Min) of fluorescent intensity.
To determine percent activity for a tested compound, the fluorescence intensity value obtained at a particular concentration were compared to the maximal fluorescence intensity value obtained for reference compound GW9508 (4-[[(3-phenoxyphenyl)methyl]amino]benzene propanoic acid; British Journal of Pharmacology 2006 148, 619-628) that acts as a full agonist of the GPR120 receptor. The maximal activity of GW9508 is designated as 100% activity. Typically, the GW9508 activity reached a maximum at a concentration of approximately 6.7 μM. Activities of compounds that were tested according to this method are shown in Table 1 below and are expressed as % activity at 5 μM compound compared to the maximal activity of GW9508 at 6.7 μM.

[1] abbreviates: read-out: EC50 between >1 μM and ≦10 μM.

Like-named read-outs stand apart in the source and are kept apart here. Some results are limits rather than exact numbers.

One may read the EC50 as the concentration at which the effect is half-maximal. `CCc1ccc(-n2nc(C)cc2COc2ccc(CC(C)C(=O)O)cc2F)cc1` (centres unmarked) [Example 90, 3-(4-((1-(4-ethylphenyl)-3-methyl-1H-pyrazol-5-yl)methoxy)-3-fluorophenyl)-2-methylpropanoic acid]: the “% Activity at 5 μM” value is reported as 99%. Also, the EC50 (read-out: EC50 ≦ 1 μM) was at most 1000 nM.
Taken in the same sequence, the figures for `O=C(O)CCc1cc(F)c(OCc2cc(C(F)(F)F)nn2-c2ccc(Cl)cc2)c(F)c1` [Example 56, 3-(4-((1-(4-chlorophenyl)-3-(trifluoromethyl)-1H-pyrazol-5-yl)methoxy)-3,5-difluorophenyl)propanoic acid] were 71% and at most 1000 nM.
The like results for `Cc1cc(COc2ccc(CC(C)C(=O)O)cc2F)n(-c2ccc(Cl)cc2)n1` (centres unmarked) [Example 108, 3-(4-((1-(4-Chlorophenyl)-3-methyl-1H-pyrazol-5-yl)methoxy)-3-fluorophenyl)-2-methylpropanoic acid] were, in that order, 106% and at most 1000 nM.
For the compound `Cc1cc(COc2c(F)cc(CC(C)C(=O)O)cc2F)n(-c2ccc(C3CCCCC3)cc2)n1` (centres unmarked) [Example 104, 3-(4-((1-(4-Cyclohexylphenyl)-3-methyl-1H-pyrazol-5-yl)methoxy)-3,5-difluorophenyl)-2-methylpropanoic acid], the “% Activity at 5 μM” value came out at 27%. Also, the EC50 (read-out: EC50 > 10 μM) was above 10000 nM.
Take `COc1cc(CC(C)C(=O)O)ccc1OCc1cc(C)nn1-c1ccc(Cl)cc1` (centres unmarked) [Example 112, 3-(4-((1-(4-Chlorophenyl)-3-methyl-1H-pyrazol-5-yl)methoxy)-3-methoxyphenyl)-2-methylpropanoic acid]: the “% Activity at 5 μM” value is 83%. For the same compound, the EC50 under setting [1] was in the range of 1000 to 10000 nM.
As for `CC(Cc1cc(F)c(OCc2cc(C(F)(F)F)nn2-c2ccc(Cl)cc2)c(F)c1)C(=O)O` (centres unmarked) [Example 117, 3-(4-((1-(4-chlorophenyl)-3-(trifluoromethyl)-1H-pyrazol-5-yl)methoxy)-3,5-difluorophenyl)-2-methylpropanoic acid], the “% Activity at 5 μM” value was found to be 105%. Moreover, the EC50 (read-out: EC50 ≦ 1 μM) is at most 1000 nM.
On to `O=C(O)CCc1cc(F)c(OCc2sccc2-n2cccc2)c(F)c1` [Example 20, 3-(4-((3-(1H-pyrrol-1-yl)thiophen-2-yl)methoxy)-3,5-difluorophenyl)propanoic acid], for which the “% Activity at 5 μM” value was found to be 88%. Besides, the EC50 (read-out: EC50 ≦ 1 μM) is at most 1000 nM.
On to `Cc1cc(COc2c(F)cc(CC(C)C(=O)O)cc2F)n(-c2ccc(Br)cc2)n1` (centres unmarked) [Example 97, 3-(4-((1-(4-bromophenyl)-3-methyl-1H-pyrazol-5-yl)methoxy)-3,5-difluorophenyl)-2-methylpropanoic acid], for which the “% Activity at 5 μM” value came to 109%. Moreover, where the note is “read-out: EC50 ≦ 1 μM”, the EC50 was at most 1000 nM.
`Cc1onc(-c2c(Cl)cccc2Cl)c1COc1c(F)cc(CCC(=O)O)cc1F` [Example 22, 3-(4-((3-(2,6-dichlorophenyl)-5-methylisoxazol-4-yl)methoxy)-3,5-difluorophenyl)propanoic acid]: the “% Activity at 5 μM” value came to 75%. For the same compound, under setting [1], the EC50 lay within 1000 to 10000 nM.
Regarding `Cc1cc(COc2ccc(C=C3CC(C(=O)O)C3)cc2)n(-c2ccc(Cl)cc2)n1` (centres unmarked) [Example 111, 3-(4-((1-(4-Chlorophenyl)-3-methyl-1H-pyrazol-5-yl)methoxy)benzylidene)cyclobutanecarboxylic acid], the “% Activity at 5 μM” value is listed as 80%. Also, the EC50 (read-out: EC50 ≦ 1 μM) is at most 1000 nM.
Taken in the same sequence, the figures for `COc1ccc(-c2noc(C)c2COc2c(F)cc(CCC(=O)O)cc2F)cc1` [Example 21, 3-(3,5-difluoro-4-((3-(4-methoxyphenyl)-5-methylisoxazol-4-yl)methoxy)phenyl)propanoic acid] were 97% and at most 1000 nM.
The like results for `Cc1cc(COc2c(F)cc(CCC(=O)O)cc2F)n(-c2ccc(F)c(F)c2)n1` [Example 53, 3-(4-((1-(3,4-difluorophenyl)-3-methyl-1H-pyrazol-5-yl)methoxy)-3,5-difluorophenyl)propanoic acid] were, in that order, 84% and at most 1000 nM.
In the case of `C/C(=C\C(=O)O)CCc1ccc(OCc2snnc2-c2ccc(Cl)cc2)cc1` [Example 70, (E)-5-(4-((4-(4-chlorophenyl)-1,2,3-thiadiazol-5-yl)methoxy)phenyl)-3-methylpent-2-enoic acid], the “% Activity at 5 μM” value amounted to 62%. Besides, the EC50 under setting [1] is 1000 to 10000 nM.
As to `CCc1ccc(-n2nccc2COc2c(F)cc(CC(C)C(=O)O)cc2F)cc1` (centres unmarked) [Example 100, 3-(4-((1-(4-ethylphenyl)-1H-pyrazol-5-yl)methoxy)-3,5-difluorophenyl)-2-methylpropanoic acid], the “% Activity at 5 μM” value was 109%. Besides, the EC50 (read-out: EC50 ≦ 1 μM) is at most 1000 nM.
For the compound `COc1cc(OCc2cc(C)nn2-c2ccc(Cl)cc2)ccc1CC(C)C(=O)O` (centres unmarked) [Example 103, 3-(4-((1-(4-Chlorophenyl)-3-methyl-1H-pyrazol-5-yl)methoxy)-2-methoxyphenyl)-2-methylpropanoic acid], the “% Activity at 5 μM” value is listed as 78%. Further, the EC50 under setting [1] fell in the range of 1000 to 10000 nM.
As for `Cc1cc(COc2c(F)cc(CCC(=O)O)cc2F)n(-c2ccc(F)cc2)n1` [Example 47, 3-(3,5-difluoro-4-((1-(4-fluorophenyl)-3-methyl-1H-pyrazol-5-yl)methoxy)phenyl)propanoic acid], the “% Activity at 5 μM” value is reported as 71%. For the same compound, for the setting “read-out: EC50 ≦ 1 μM”, the EC50 was at most 1000 nM.
Turning to `Cc1cc(COc2c(F)cc(CC(C)C(=O)O)cc2F)n(-c2ncc(Cl)cn2)n1` (centres unmarked) [Example 110, 3-(4-((1-(5-Chloropyrimidin-2-yl)-3-methyl-1H-pyrazol-5-yl)methoxy)-3,5-difluorophenyl)-2-methylpropanoic acid], the “% Activity at 5 μM” value is 19%. Further, for the setting “read-out: EC50 > 10 μM”, the EC50 was above 10000 nM.
Take `Cc1cc(COc2c(F)cc(CCC(=O)O)cc2F)n(C(C)(C)C)n1` [Example 41, 3-(4-((1-tert-butyl-3-methyl-1H-pyrazol-5-yl)methoxy)-3,5-difluorophenyl)propanoic acid]: the “% Activity at 5 μM” value is 50%. For the same compound, the EC50 (read-out: EC50 ≦ 1 μM) is at most 1000 nM.
Take `O=C(O)CCC(=O)c1ccc(OCc2snnc2-c2ccc(Cl)cc2)cc1` [Example 67, 4-(4-((4-(4-chlorophenyl)-1,2,3-thiadiazol-5-yl)methoxy)phenyl)-4-oxobutanoic acid]: the “% Activity at 5 μM” value was determined as 59%. Also, the EC50 under setting [1] fell in the range of 1000 to 10000 nM.
Taken in the same sequence, the figures for `CCc1ccc(-n2nc(C)cc2COc2ccc(CCC(C)C(=O)O)cc2)cc1` (centres unmarked) [Example 132, 4-(4-((1-(4-ethylphenyl)-3-methyl-1H-pyrazol-5-yl)methoxy)phenyl)-2-methylbutanoic acid] were 85% and 1000 to 10000 nM.
In the case of `O=C(O)CCc1cc(F)c(OCc2ncoc2-c2ccccc2)c(F)c1` [Example 10, 3-(3,5-difluoro-4-((5-phenyloxazol-4-yl)methoxy)phenyl)propanoic acid], the “% Activity at 5 μM” value amounted to 60%. The EC50 (read-out: EC50 ≦ 1 μM) is at most 1000 nM.
In the case of `Cc1cc(COc2ccc(CCCC(=O)O)cc2)n(-c2ccc(Cl)cc2)n1` [Example 127, 4-(4-((1-(4-chlorophenyl)-3-methyl-1H-pyrazol-5-yl)methoxy)phenyl)butanoic acid], the “% Activity at 5 μM” value stood at 112%. In addition, the EC50 (read-out: EC50 ≦ 1 μM) was at most 1000 nM.
